Results: patent publication US20250197799A1, “CELLS DERIVED FROM POLYPEDILUM VANDERPLANKI AND ODOR SENSOR EQUIPPED THEREWITH” (University of Maryland, College Park, priority 2022, published 2025)

Tests used:
Orco and Or47a = molecular target: T1, Orco and Or47a (Drosophila melanogaster, UniProt P81921+Q9VNB5); test: Fluorescence on stimulation of Pv11 transient expression strain (GCaMP6f, Orco, Or47a); assay type: cell-based; conditions: fluorescence microscope, DMSO negative control
T1 construct: expressed in transfected cells; host or cells: Pv11 cells (Polypedilum vanderplanki)
T1 sequence (Q9VNB5 1-486): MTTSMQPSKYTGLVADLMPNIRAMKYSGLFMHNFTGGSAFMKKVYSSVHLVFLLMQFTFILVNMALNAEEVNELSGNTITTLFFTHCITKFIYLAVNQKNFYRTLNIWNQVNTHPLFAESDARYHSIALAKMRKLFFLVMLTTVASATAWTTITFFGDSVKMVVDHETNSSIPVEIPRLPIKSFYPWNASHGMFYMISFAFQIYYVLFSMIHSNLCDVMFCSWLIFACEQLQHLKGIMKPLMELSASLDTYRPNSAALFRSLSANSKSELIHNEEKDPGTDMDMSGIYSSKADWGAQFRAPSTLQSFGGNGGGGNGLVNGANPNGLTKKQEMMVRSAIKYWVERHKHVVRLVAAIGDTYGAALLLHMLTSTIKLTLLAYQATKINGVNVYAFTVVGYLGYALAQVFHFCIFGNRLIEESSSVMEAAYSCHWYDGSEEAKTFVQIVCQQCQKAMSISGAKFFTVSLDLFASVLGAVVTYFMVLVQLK
T1 sequence (P81921 1-385): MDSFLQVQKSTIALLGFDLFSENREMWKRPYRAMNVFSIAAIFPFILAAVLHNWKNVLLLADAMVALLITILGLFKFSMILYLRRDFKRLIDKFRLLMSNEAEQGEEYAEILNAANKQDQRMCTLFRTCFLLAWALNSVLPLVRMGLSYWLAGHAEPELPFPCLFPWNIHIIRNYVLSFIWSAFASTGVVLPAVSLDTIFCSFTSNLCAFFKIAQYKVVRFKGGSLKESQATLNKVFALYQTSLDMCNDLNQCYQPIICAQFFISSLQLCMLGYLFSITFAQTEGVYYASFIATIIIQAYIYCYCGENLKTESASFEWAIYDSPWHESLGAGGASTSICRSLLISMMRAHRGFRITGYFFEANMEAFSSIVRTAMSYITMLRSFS
Text: 1. Transient expression strain preparation. GCaMP6f cDNA was amplified by PCR in a conventional manner, and a pPv121-GcaMP6f vector was produced by inserting the amplified DNA sequence (SEQ ID NO: 2) encoding GcaMP6f downstream of a 121 promoter of a pPv121-MCS vector (Tokumoto et. Al., doi: https://doi. Org/10.1101/2020.05.29.123570 “Development of a Tet-On inducible expression system for the anhydrobiotic cell line, Pv11”). Similarly, the cDNA of Orco derived from Drosophila melanogaster was amplified by PCR by a conventional method, and a pPv121-Orco vector was generated by inserting the amplified Orco-encoding DNA sequence (SEQ ID NO:3) downstream of the 121 promoter of the pPv121-MCS vector. […]
The resulting pPv121-GcaMP6f vector, pPv121-Orco vector, and pPv121-Or47a vector were simultaneously transfected to Pv11 cells (see Miyata Y., et. Al, Scientific Reports, 9 (1), 7004. (2019)), and a Pv11 transient expression strain was produced that transiently expressed the GaMP6f, Orco, and Or47a proteins. If the membrane proteins Orco and Or47a were expressed and GcaMP6f was expressed in the cytoplasm, then by stimulating Pv11 transient expression strains with Orco or Or47a agonists or ligands, calcium ion influxed into the cells, and the fluorescence of GcaMP6f was observed. […]

Orco = molecular target: T2, Orco (Drosophila melanogaster, UniProt Q9VNB5); test: Response of BAM-immobilized Orco stable expression cell line; assay type: cell-based; conditions: Pv11-GCaMP6f-Orco stable expression cell line immobilized with BAM
T2 construct: remnant residues; expressed in transfected cells; host or cells: Pv11 cells (Polypedilum vanderplanki), knock-in at the Pv.00443 locus downstream of the 121 promoter, single-cell sorting
T2 sequence (Q9VNB5 1-486): T1 sequence (Q9VNB5 1-486)
Text: 8.1 Pv11 cell immobilization. A cell membrane modifier (BAM: Biocompatible Anchor for cell Membrane) was used to fix the stable expression cell line obtained above. BAM consists of a hydrophilic PEG chain, an NHS group, and a hydrophobic oleyl group; by bringing BAM into contact with a collagen-coated dish, the NHS group binds to collagen, and the oleyl group interacts with the cell membrane through hydrophobic interactions, allowing cells to adhere. BAM (SUNBRIGHT OE-040CS, Yuka Sangyo Co., Ltd.) was dissolved in DMSO (Fujifilm Wako Pure Chemical Industries) to a concentration of 10 mM. The 10 mM BAM solution was adjusted to DPBS(-) (Thermo Fisher) to a final concentration of 100 μM, 100 μl was dropped onto a collagen 1-coated 48-well microplate (IWAKI) and incubated at 37° C. for 1 hour. The BAM solution was removed, washed once with DPBS(-) (Thermo Fisher) and five times with MilliQ, and allowed to stand still to evaporate water droplets. The Pv11 cell suspension was centrifuged at 700 g for 3 minutes, the supernatant was removed, the cell pellet was suspended in DPBS(-) (Thermo Fisher) and dropped onto a BAM-coated dish. […]
8.2 Functional confirmation of exogenous membrane proteins in fixed cells. […] Each substance was reacted with each cell in the same manner as in 3.2 above, and the fluorescence intensity was measured. […]

| SMILES | fluorescence of GCaMP6f on stimulation (Orco and Or47a) | response (fluorescence intensity) of immobilized cells (Orco) |
| --- | --- | --- |
| CCc1ccc(NC(=O)CSc2nnc(-c3cccnc3)n2CC)cc1 [VUAA1, N-(4-ethylphenyl)-2-{[4-ethyl-5-(pyridin-3-yl)-4H-1,2,4-triazol-3-yl]sulfanyl}acetamide] | fluorescence was observed | did respond |
| CCCCCOC(C)=O [pentyl acetate] | fluorescence was observed | did not respond |
